“And” between values parts separate entries of the source, which are not always exact repeats. Equal values may be shown once. Read-outs that look alike come from different tables or passages of the source.

The conditions of data set [1]: cited from earlier work.
The subject of data set [2] is women. The note with it: cited from earlier work; for serious adverse effects/events: general statement.
Data set [3] relates to normal menstruating women. Description: Pilot study of MEL 15 mg for 5 days in 3 normal menstruating women. The data set is classed as in vivo, human. As for the experimental part:
A pilot study was performed using MEL 15 mg for 5 days in 3 normal menstruating women with a control no treatment but monitored cycle and a treatment cycle. Treatment was initiated when the participant was within one day of anticipated LH surge based on the control cycle.

Data set [4] deals with women. The note with it: emergency contraception; cited from earlier work.
The mark [5] stands for this setting: 1.5 mg single dose, n=1359 women, Plan B One Step label.
Where [6] appears, read: 15 mg, 12 week rheumatoid arthritis placebo controlled trial, Mobic label.
The mark [7] stands for this setting: oral 15 mg for 5 days in normal women.

For `C#C[C@]1(O)CC[C@H]2[C@@H]3CCC4=CC(=O)CC[C@@H]4[C@H]3CC[C@@]21CC` [Levonorgestrel, levonorgestrel], the “mean peak blood level” value in data set [1] (1.5 mg, immunoassay methodology) is 18 ng/mL. In addition, in data set [1] (in vivo), the “absorption from the gastrointestinal tract” value is listed as “almost completely absorbed”, the enzyme principally metabolizing entry is “CYP3A4” and the estimated serum half-life is 27.5 h. Further, the “mean peak serum level” value in data set [1] (two different laboratories, liquid chromatography and tandem mass spectrometry) is 18.3 ng/mL and 10.2 ng/mL. In addition, in the data set with women [2] (setting [5]), the breast tenderness is on record as 8.2%, the “delay of menses >7 days” value is on record as 4.5%, the dizziness is 9.6% and the fatigue was 13.3%. In the data set on women [2] (setting [5]), the headache was 10.3%, the heavy menstrual bleeding was 30.9%, the lower abdominal pain is 13.3% and the nausea is 13.7%. Further, the serious adverse effects/events result in the data set with women [2] (listed as LNG) was “have not been reported”.

For `Cc1cnc(NC(=O)C2=C(O)c3ccccc3S(=O)(=O)N2C)s1` [Meloxicam, meloxicam], the “effect on the LH surge dynamics” value in data set [3] is reported as “no effect”. In addition, the “time to steady state concentration” value in data set [1] (15 mg daily) is given as “three to five”. In addition, the “time of peak serum levels” value in data set [1] (depending upon food intake) is given as “five or six”. Besides, the enzyme principally metabolizing entry in data set [1] (in vivo) is recorded as “CYP2C9”. Also, in the data set with women [2] (15 mg taken daily for 18 days), the “incidence of adverse events” value is reported as 33.7% and the serious adverse events entry is “no serious adverse events reported”. Besides, in the data set with women [2] (setting [6]), the abdominal pain is given as 2.6%, the dizziness is given as 3.8%, the dyspepsia is reported as 4.5% and the edema is 4.5%. In the data set on women [2] (setting [6]), the headache was 8.3%, the nausea was 3.8% and the skin rash is listed as 0.6%. Besides, in the data set with women [2], the serious adverse effects/events result is on record as “rare”. Besides, in the data set with women [2] (setting [7]), the adverse events is recorded as 27.3%, the bloating is on record as 4.5%, the hot flushes is listed as 9.0% and the low abdominal pain is 13.6%.

Regarding `CC(=O)O[C@]1(C(C)=O)CC[C@H]2[C@@H]3CCC4=CC(=O)CCC4=C3[C@@H](c3ccc(N(C)C)cc3)C[C@@]21C` [ulipristal acetate], the “preventing pregnancy as interval from unprotected intercourse to use increases” value in the data set on women [4] was “superior to LNG”.
